Drawing on ChEMBL document CHEMBL3045362, “Iodine catalyzed one-pot synthesis of chloro-substituted linear and angular indoloquinolines and in vitro antiproliferative activity study of different indoloquinolines” (Med Chem Res, 2013), this text covers IC50 for 4 compounds.

In brackets after ≈: the same amount, converted by molar mass.

The subject of one assay is MCF7. The assay is described as follows: Cytotoxicity against Homo sapiens (human) MCF-7 cells assessed as survival after 48 hr by MTT assay. The class given is functional, cell-based. The conditions noted are these: MCF7, 48 h.
For another assay, the system named is HepG2. The assay is described as follows: Cytotoxicity against Homo sapiens (human) HepG2 cells assessed as survival after 48 hr by MTT assay. In kind it is functional, cell-based. The conditions noted are these: HepG2, 48 h. (Tetrazolium dyes change colour on reduction, which living cells bring about.)

One may read the IC50 as the point on the concentration scale where inhibition reaches its midpoint. Regarding `Brc1ccc2cc3c(nc2c1)[nH]c1ccccc13`, the IC50 amounted to 42.8 µg/mL (≈ 144 µM) in the assay on MCF7 and 34 µg/mL (≈ 114 µM) with HepG2.
The matching figures for `Cc1cccc2cc3c(nc12)[nH]c1ccccc13`: 5.5 µg/mL (≈ 23.7 µM) and 5.4 µg/mL (≈ 23.2 µM).
The matching figures for `c1ccc2[nH]c3nc4ccccc4c-3cc2c1`: more than 1000 µg/mL and more than 1000 µg/mL.
The matching figures for `c1ccc2c(c1)ccc1cc3c(nc12)[nH]c1ccccc13`: 71.4 µg/mL (≈ 266 µM) and 98.1 µg/mL (≈ 366 µM).
